Experimental data published in patent publication US8877161B2 (priority 2011, dated 2014).
Like-named read-outs stand apart in the source and are kept apart here. Where a SMILES comes first, the peptide text is derived from it.

What was measured:
Type in all cases: binding
[1] = molecular target: cholera toxin B subunit (CTB); ligand GM1 (Vibrio cholerae serotype O1, UniProt P01556)
[2] = molecular target: cholera toxin B subunit (CTB); ligand fucosyl-GM1 (F-GM1) (Vibrio cholerae serotype O1, UniProt P01556)
Chain of cholera toxin B subunit (CTB); ligand fucosyl-GM1 (F-GM1) (P01556 22-124 limits assumed): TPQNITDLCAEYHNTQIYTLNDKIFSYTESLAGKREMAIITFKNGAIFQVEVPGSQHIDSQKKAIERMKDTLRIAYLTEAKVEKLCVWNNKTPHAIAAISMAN

[3] = molecular target: cholera toxin B subunit (CTB); ligand LOSGM1 (Vibrio cholerae serotype O1, UniProt P01556)
Chain of cholera toxin B subunit (CTB); ligand LOSGM1 (P01556 22-124 limits assumed): as above

[4] = molecular target: cholera toxin B subunit (CTB); ligand GD1b (Vibrio cholerae serotype O1, UniProt P01556)
Chain of cholera toxin B subunit (CTB); ligand GD1b (P01556 22-124 limits assumed): as above

[5] = molecular target: cholera toxin B subunit (CTB); ligand Lipid AP (Vibrio cholerae serotype O1, UniProt P01556)
Chain of cholera toxin B subunit (CTB); ligand Lipid AP (P01556 22-124 limits assumed): as above

[6] = test system: rabbit anti-GM1 antibodies (AbGM1); conditions: for IC50: AbGM1-1 lot # 431A
AbGM2 (GM2/AbGM2) = conditions: peptide at its IC50 AbGM1-1; lot # D710-2
AbGM4 (GM4/AbGM4) = conditions: peptide at its IC50 AbGM1-1; lot # GMR6
AbGD1a (GD1a/AbGD1a) = conditions: peptide at its IC50 AbGM1-1; lot # 109H
AbGD1b (GD1b/AbGD1b) = conditions: peptide at its IC50 AbGM1-1; lot # D710-6
AbGD3 (GD3/AbGD3) = conditions: peptide at its IC50 AbGM1-1; lot # R24
AbF-GM1 (F-GM1/AbF-GM1) = conditions: peptide at its IC50 AbGM1-1; lot # G351
AbSGPG (SGPG/AbSGPG) = conditions: peptide at its IC50 AbGM1-1; lot # D710-5

Chain of cholera toxin B subunit (CTB); ligand GM1 (P01556 22-124 limits assumed): as above

CC[C@H](C)[C@H](NC(=O)[C@@H](N)CCC(N)=O)C(=O)N[C@@H](CC(N)=O)C(=O)N[C@H](C(=O)N[C@@H](C)C(=O)N[C@@H](CCCCN)C(=O)N[C@@H](Cc1c[nH]c2ccccc12)C(=O)N[C@@H](Cc1c[nH]c2ccccc12)C(=O)N[C@@H](CCCCN)C(=O)N[C@H](C(=O)N[C@@H](Cc1c[nH]cn1)C(=O)N[C@@H](Cc1ccccc1)C(=O)O)[C@@H](C)O)[C@@H](C)O [PGM1-5, QINTAKWWKTHF] (H-QINTAKWWKTHF-OH)
IC50 GM1 [1]: 34.4 pmol/mL
Inhibition percent at IC50 GM1: GM1 [1]: 50%
Inhibition percent at IC50 GM1: F-GM1 [2]: 52.1%
Inhibition percent at IC50 GM1: LOSGM1 [3]: 50.0%
Inhibition percent at IC50 GM1: GD1b [4]: 39.8%
Inhibition percent at IC50 GM1: Lipid AP [5]: 0%
IC50 ([6]; Table 4, dilution 1:500): 481 nM
IC50 ([6]; Table 5): 481 nM
Inhibition percent at IC50AbGM1-1: GM1/AbGM1-1 ([6]; Table 5, peptide at its IC50 AbGM1-1, lot # 431A): 50%
Inhibition percent at IC50 AbGM1-1: AbGM1-3 ([6]; peptide at its IC50 AbGM1-1, antibody lot # 101J, dilution 1:500): 12.1%
Inhibition percent at IC50 AbGM1-1: AbeGM1-4 ([6]; peptide at its IC50 AbGM1-1, antibody lot # 104H, dilution 1:500): 0%
Inhibition percent at IC50 AbGM1-1: AbGM1-5 ([6]; peptide at its IC50 AbGM1-1, antibody lot # 105T, dilution 1:500): 32.9%
Inhibition percent at IC50 AbGM1-1: AbGM1-1 ([6]; peptide at its IC50 AbGM1-1, antibody lot # 431A, dilution 1:500, means of 4 values): 50%
Inhibition percent at IC50 AbGM1-1: AbGM1-2 ([6]; peptide at its IC50 AbGM1-1, antibody lot # 431B, dilution 1:500): 0%
Inhibition percent at IC50AbGM1-1: GM2/AbGM2 (AbGM2 (GM2/AbGM2)): 6.5%
Inhibition percent at IC50AbGM1-1: GM4/AbGM4 (AbGM4 (GM4/AbGM4)): 0%
Inhibition percent at IC50AbGM1-1: GD1a/AbGD1a (AbGD1a (GD1a/AbGD1a)): 0%
Inhibition percent at IC50AbGM1-1: GD1b/AbGD1b (AbGD1b (GD1b/AbGD1b)): 0%
Inhibition percent at IC50AbGM1-1: GD3/AbGD3 (AbGD3 (GD3/AbGD3)): 0%
Inhibition percent at IC50AbGM1-1: F-GM1/AbF-GM1 (AbF-GM1 (F-GM1/AbF-GM1)): 0%
Inhibition percent at IC50AbGM1-1: SGPG/AbSGPG (AbSGPG (SGPG/AbSGPG)): 0%
